Experiment [1] concerns bFGF-induced corneal neovascularization. Kind of experiment: Rat corneal neovascularization (corneal pocket) assay. It is filed as in vivo, Sprague Dawley rats. As to conditions: pellet with 60 ng of bFGF plus 1 ug JC-5, day 7. Here is the method:
Pellets made of the hydron polymer (polyHEME) and a test drug or DMSO were implanted on the corneal surface of rats, and vascular formation thereof was observed.
A hydron polymer (polyHEME) was dissolved in absolute ethanol (12% w/v) in a rotator at 37° C. overnight, and then stored at room temperature before pellet making. Each pellet for the corneal pocket assay contained 60 ng of bFGF, or 1 ug JC-5 and 20 ug of sucralfate in 3 uL of casting gel, which was constituted as a 50:50 (vol/vol) mixture of hydron gel and factor-sucralfate-PBS. The casting gel was promptly pipetted onto an autoclaved, sterilized 20×20-mm piece of nylon mesh with an approximate pore size of 2×2 mm. The pellets were prepared the day before corneal surgery in a laminar flow hood under sterile conditions. Subsequently, the fibers of the mesh were pulled apart, and uniformly sized pellets of 2×2×0.4 mm^3 were selected for implantation. All procedures were performed in sterile conditions. Such pellets can be stored frozen at −20° C. for several days without loss of bioactivity. […] The eyes were exposed, and the maximum vessel length (VL) of the neovascularization zone, extending from the base of the limbal vascular plexus toward the pellet, was measured. […] The contiguous circumferential zone of neovascularization (CN) was measured in clock hours with a 360° reticule (where 30° of arc equals 1 clock hour).

For experiment [2], the system named is human umbilical vein endothelial cells (HUVEC). The experiment can be described thus: Inhibition of HUVEC net structure (tube) formation on ECM/Matrigel. In kind it is cell-based. The settings on record: group without drug = 100%, read-out: 50% inhibiting concentration (IC50) for inhibiting tube formation. Here is the method: The lyophilized powder was dissolved in an appropriate solvent and an in vitro anti-angiogenesis was performed thereto. The ability of the extract for inhibiting net structure formation of human umbilical vein endothelial cells (HUVEC) in extracellular matrix (ECM) or growth factor reduced Matrigel was analyzed, and the forming level of the tube structure thereof was integrated to be used as an indicator for quantification.
Furthermore, by using Matrigel (BD, Cat. No. 356231) as a matrix and observing the state of human umbilical vein endothelial cells (HUVECs) constructing a net structure on the matrix, state of JC-5 (yatein) inhibiting the formation of HUVEC net structure was analyzed. […] The total length of the net structure was calculated through NIS element image analysis software (Nikon; Agent: Lin Trading Co., Ltd. Taiwan), wherein by using the total length of a net structure formed from a group without a drug addition as 100%, the state of JC-5 inhibiting the formation of HUVEC net structure was analyzed.
By using Matrigel (BD, Cat. No. 356231) as a matrix and observing the state of human umbilical vein endothelial cells (HUVECs) constructing a net structure on the matrix, the states of the crude extract (CBT-143-S) and the fractional extract (CBT-143-S-F6F7) inhibiting the formation of HUVEC net structure were analyzed. […]

A further experiment concerns laser-induced CNV. The experiment can be described thus: Laser-induced choroidal neovascularization (CNV) assay. As to conditions: 1 μg/2 ul in DMSO per eye, fluorescein angiography. It is filed as in vivo, brown Norway rats. From the text: Male rats (brown Norway rats, purchased from BioLASCO Co., Taiwan) were used. CNV lesions were induced in rat eyes by laser photocoagulation. Briefly, after the rats were anesthetized, their pupils were dilated with 1% tropicamide. A piece of 18×24 mm^2 standard cover glass served as a contact lens for application of photocoagulation. Argon laser irradiation was delivered through a slit lamp. Laser parameters were set as follows: spot size of 50 μm; power of 120 mW; and exposure duration of 0.1 second. An attempt was made to break Bruch's membrane, as clinically evidenced by central bubble formation, with or without intraretinal or choroidal hemorrhage. Four to six lesions were created between the major retinal vessels in each fundus. One day prior to laser treatment, animals received bilateral intravitreal injection of 2 ul JC-5 (1 ug/eye, N=6) or 2 ul vehicle (DMSO, N=6). Fourteen days later, a self-retaining eye speculum was placed in the eye to facilitate administration. […] Rats were analyzed under general anesthesia after dilation of the pupil and subsequent intraperitoneal injection of 0.5 ml of 2.5% fluorescein sodium (Alcon, […], Germany). […] For quantitative analysis of fluorescein leakage, the area of fluorescein leakage, determined as area of hyperfluorescence in which no normal retinal blood vessels were observed, was measured for each burn using ImageJ software (NIH, USA).

Experiment [3] relates to growth factor (FGFb+VEGF)-induced angiogenesis. Kind of experiment: Matrigel plugs assay, in vivo growth factor-induced angiogenesis. Also noted: species or system BALB/c mice. As to conditions: orally administered every day 30 mg/kg/day, 14 days.
The subject of the next experiment is PBMCs. Kind of experiment: Toxicity test for normal cells, PBMCs (Alamarblue cell viability assay). In kind it is cell-based. As to conditions: PBMC, 72 hours incubation, read-out: IC50 of a test drug for PBMCs. Here is the method: In order to investigate whether the inhibiting effects mentioned above of the crude extract (CBT-143-S) and the fractional extract (CBT-143-S-F6F7) are due to the toxicity thereof or not, cell viability assay for normal cells, PBMCs, and growth inhibition assays for HUVECs were performed to the crude extract (CBT-143-S) and the fractional extract (CBT-143-S-F6F7), and a commercial clinical drug, sorafenib, were used for comparison as a reference.
Alamarblue is a plant dye that is usually blue. The dye decomposes during cell proliferation and reduces from blue to pink, and a rise in O.D. at 570 nm can be determined. Conversely, the more dead cells there are, the lower the O.D. value is determined to be.
PBMC cells (1×10^5 cells/well) were inoculated in a 96-well plate, and the crude extract (CBT-143-S) and the fractional extract (CBT-143-S-F6F7) samples, etc. with different concentrations (300, 100, 30, 10, 3 and 1 μg/mL) were added to the plate. After incubating for 72 hours, Alamarblue was added to the plate and incubated at 37° C. for 24 hours, and then the O.D. at 570 nm/600 nm thereof was determined by an ELISA reader. After that, the obtained O.D. values were substituted into the formal calculation as follows: […]
(The colour change of resazurin is a common sign of viable cells or microbes.)

Experiment [4] deals with Hep-3B conditional medium (CM)-induced angiogenesis. Kind of experiment: Matrigel plugs assay, in vivo Hep-3B conditional medium-induced angiogenesis. On the set-up: species or system BALB/c mice. As to conditions: orally administered every day 30 mg/kg/day, 14 days. Here is the method:
Through a subcutaneous injection to BALB/c mice to form Matrigel plugs, an evaluation was made of whether a test substance was capable of inhibiting angiogenesis induced by vascular endothelial growth factor or Hep-3B conditional medium (CM).
Matrigel is extracted from the Engelbreth-Holm-Swarm (EHS) mouse sarcoma and contains rich extracellular matrix proteins and contains various factors need by vascular growth. In a condition of room temperature and 37° C., Matrigel is capable of polymerize as a solid gel from, and can provide a better growth environment for vascular endothelial cells.
Matrigel and vascular endothelial growth factors (FGFb+VEGF) or Hep-3B conditional medium (CM) were mixed, and then a test substance was added thereto and mixed. […]
(c) Hemoglobin content in Matrigel was quantified by a QuantiChrom™ Hemoglobin Assay Kit (DIHB-250) to evaluate the amount of neo-blood vessels in Matrigel.
After subcutaneous injection to BALB/c mice for 14 days, the Matrigel plugs in the subcutaneous tissue of the mouse was taken out and equal amount of dispase was added therein to form a mixture and reacted at 37° C. for 16 hours to dissolve intercellular substance gel. […] After the supernatant was reacted with the reagent for 5 minutes, the optical density (O.D.) at 400 nm therefrom was determined. […]

`COc1cc(C[C@H]2C(=O)OC[C@@H]2Cc2ccc3c(c2)OCO3)cc(OC)c1OC` [JC-5, yatein]: the “neovascular response in implanted cornea” value in experiment [1] is recorded as “inhibited”. The IC50 in experiment [2] worked out at 0.335 µM. Further, the “CNV lesions areas compared to DMSO-treated vehicles” value in the experiment on laser-induced CNV (intravitreal, day 7 and day 14) was “significantly decreased”. Moreover, the “fluorescent dye uptake and extent of CNV” value in the experiment with laser-induced CNV is reported as “less”.
On to `CNC(=O)c1cc(Oc2ccc(NC(=O)Nc3ccc(Cl)c(C(F)(F)F)c3)cc2)ccn1` [Sorafenib, sorafenib], for which the “hemoglobin concentration of the Matrigel plug” value in experiment [3] turned out to be 27.09 ± 5.88 mg/dL; in experiment [4] it was 25.05 ± 17.59 mg/dL. Also, the IC50 in the experiment with PBMCs amounted to 10.8 ± 0.95 µM.
